Laboratory results published in article PMC12606464, “Investigating NFE2L1 activators for targeted protein aggregate clearance: a follow-up study” (RSC Medicinal Chemistry, 2025).

Experiments:
[1] = test system: EGFP-HttQ74 aggregates in U2OS cells; test: Analysis of polyQ (EGFP-HttQ74) aggregation in U2OS cells; type: cell-based; settings: U2OS EGFP-HttQ74, 5 μM, 24 h, with BOC-D-FMK
Protocol: Considering these earlier findings, we assessed the impact of the most promising compound, RUN-89, on protein aggregate formation in cells. U2OS cells were transfected with the EGFP-HttQ74 plasmid, a model for polyglutamine (polyQ) aggregation, and then treated with the caspase inhibitor BOC-D-FMK in combination with either 5 μM RUN compounds or a vehicle control for 24 hours prior to the microscopy analysis (Fig. 4). […] A decrease in aggregate size leads to an increase in their number, as the formation of large aggregates is prevented. Instead, multiple smaller aggregates are formed, which, according to our assumption, could be more easily degraded (Fig. 4B). […] Representative fluorescence microscopy images of U2OS cells expressing EGFP-HttQ74 treated with RUN-89 are shown in Fig. 4D, highlighting the difference between RUN-89-treated and vehicle-treated cells.
U2OS cells expressing EGFP-HttQ74 were treated for 24 hours with either the caspase inhibitor BOC-D-FMK, 5 μM RUN compounds, or DMSO (negative control). In total, cells from three independent experiments were analyzed (n = 3) and from every well 10 areas were screened. […] The volume value was measured in voxels. […] (D) Fluorescence microscopy images represent U2OS cells overexpressing EGFP-HttQ74 after treatment with RUN-89 and DMSO for 24 h. […]
instructions. […] Data were expressed as a fold change relative to the corresponding DMSO control. […]

[2] = test system: NFE2L1 pathway; test: 3×PSMA4-ARE-LUC reporter with or without N-acetyl-L-cysteine (NAC); type: cell-based, human; settings: HEK293, 5 μM, 16 h
Source text: We next examined whether the selected RUN compounds activate the NFE2L1 pathway in a stress-independent manner, while preserving normal ubiquitin-dependent proteasomal degradation. This distinction is crucial, as the therapeutic benefit of NFE2L1 activation lies in its ability to alleviate proteotoxic stress and target disease-related proteins for degradation without compromising normal proteostasis. To assess this, U2OS cells stably expressing the short-lived fluorescent reporter Ub-G76V-GFP were treated with various concentrations of RUN compounds. […] We also examined whether compound-induced activation of NFE2L1 could be attributed to the generation of reactive oxygen species (ROS). To test this, the 3×PSMA4-ARE-LUC reporter assay was performed in the presence or absence of the antioxidant N-acetyl-L-cysteine (NAC). A decrease in reporter activity upon NAC treatment would indicate pathway activation through oxidative stress. […]
To determine whether RUN compounds activate the NFE2L1 pathway via reactive oxygen species (ROS) generation or through Keap1-NRF2 pathway crosstalk, we used the 3xPSMA4-ARE-LUC dual reporter assay in HEK293 cells. […] A reduction in luminescence signal upon NAC co-treatment would indicate that the compound activates the reporter via ROS-mediated mechanism or Keap1-NRF2-dependent oxidative/electrophilic stress. […]

| SMILES | Number of aggregates per cell [1] | NFE2L1 reporter activation in the presence of NAC [2] |
| --- | --- | --- |
| COc1ccc(/C=C2\CC(NC(=O)C3CCCC3)C/C(=C\c3ccc(OC)c(OC)c3)C2=O)cc1OC (centres unmarked) [RUN-89] | 4.545 |  |
| COc1ccc(/C=C2\CC(NC(=O)c3ccccn3)C/C(=C\c3ccc(OC)c(OC)c3)C2=O)cc1OC (centres unmarked) [RUN-94] |  | retained its activity |
